Article PMC5515969, “Effects of 31 FDA approved small-molecule kinase inhibitors on isolated rat liver mitochondria” (Archives of Toxicology, 2016)

Assays:
[1] = test system: isolated rat liver mitochondria; experiment: Mitochondrial inner membrane potential (MMP), Rhodamine 123; format: biochemical; conditions: difference in signal between KI and DMSO treated samples at the end of experiments
Excerpt: Fig. 3 KI effects on mitochondrial inner membrane potential (MMP). […] In a, c, data are means and standard derivations from three separate experiments. *p < 0.05 as compared to DMSO-treated samples at the end of experiments. In b, data are means of two independent experiments

[2] = test system: isolated rat liver mitochondria; conditions: positive control alamethicin treated samples
[3] = test system: isolated rat liver mitochondria; experiment: Mitochondrial oxygen consumption (glutamate/malate or succinate driven, state 4 and state 3); format: biochemical; conditions: DMSO treated samples set as 1; for State 3 respiration driven by succinate at 10XCmax: key: 0 indicates that the drug had no effects (negative); for State 3 respiration driven by succinate at 1XCmax: key: 0 indicates that the drug had no effects (negative)
How it was run: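 Oxygen uptake on glutamate/malate or on succinate defined state 4; ADP added 3 min later gave state 3. Mitochondria isolated from rat liver by differential centrifugation, adjusted to 1 mg/ml and pretreated 5 min with inhibitor (0.1% DMSO final). Values relative to DMSO control, set to 1.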

[4] = human therapeutic maximal blood concentration, ref product labeling, cited from earlier work; for Cmax: read-out: Cmax at µM
RCC III = RCC III activity in submitochondrial particles; format: biochemical, rat; set-up: key to RCC III at 100XCmax: activity relative to DMSO-treated controls (control set as 1 = 100%); conditions: 100XCmax
How it was run: (§1)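 Rat submitochondrial particles (1 mg/ml) were treated with test compounds for 15 min. RCC IV, like RCC III, was monitored at 550 nm every 10 s for 2 min, and RCC I/V at 340 nm each minute for 6 min. DMSO samples defined unit activity.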

RCC II = biological target: T1, RCC II (Rattus norvegicus, UniProt P21913+Q641Z9+Q6PCT8+Q920L2); experiment: RCC II activity in submitochondrial particles; format: biochemical; set-up: key: activity relative to DMSO-treated controls (control set as 1 = 100%); conditions: DMSO treated samples set as 1
T1 construct: Submitochondrial particles were prepared by subjecting the intact mitochondria to three successive freeze–thaw cycles; from tissue; host or cells: rat liver mitochondria, used as submitochondrial particles
How it was run: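 Activity relative to DMSO (set as 1) after 15-min exposure of submitochondrial particles (1 mg/ml) to compound. RCC I is defined as rotenone-sensitive activity and RCC II is followed at 600 nm over 6 min.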

RCC I = RCC I activity in submitochondrial particles; format: biochemical, rat; set-up: key to RCC I at 10XCmax / RCC I at 100XCmax / RCC I at 50XCmax / RCC I at 30XCmax / RCC I at 20XCmax: activity relative to DMSO-treated controls (control set as 1 = 100%); conditions: 10XCmax; DMSO treated samples set as 1
How it was run: as §1

RCC IV = RCC IV activity in submitochondrial particles; format: biochemical, rat; set-up: key to RCC IV at 50XCmax / RCC IV at 100XCmax: activity relative to DMSO-treated controls (control set as 1 = 100%); conditions: 50XCmax; DMSO treated samples set as 1; in %
How it was run: as §1

[5] = test system: isolated rat liver mitochondria; experiment: Mitochondrial ROS production (CM-H2DCFDA); conditions: DMSO treated samples set as 1

T1 sequence (Q920L2 35-656): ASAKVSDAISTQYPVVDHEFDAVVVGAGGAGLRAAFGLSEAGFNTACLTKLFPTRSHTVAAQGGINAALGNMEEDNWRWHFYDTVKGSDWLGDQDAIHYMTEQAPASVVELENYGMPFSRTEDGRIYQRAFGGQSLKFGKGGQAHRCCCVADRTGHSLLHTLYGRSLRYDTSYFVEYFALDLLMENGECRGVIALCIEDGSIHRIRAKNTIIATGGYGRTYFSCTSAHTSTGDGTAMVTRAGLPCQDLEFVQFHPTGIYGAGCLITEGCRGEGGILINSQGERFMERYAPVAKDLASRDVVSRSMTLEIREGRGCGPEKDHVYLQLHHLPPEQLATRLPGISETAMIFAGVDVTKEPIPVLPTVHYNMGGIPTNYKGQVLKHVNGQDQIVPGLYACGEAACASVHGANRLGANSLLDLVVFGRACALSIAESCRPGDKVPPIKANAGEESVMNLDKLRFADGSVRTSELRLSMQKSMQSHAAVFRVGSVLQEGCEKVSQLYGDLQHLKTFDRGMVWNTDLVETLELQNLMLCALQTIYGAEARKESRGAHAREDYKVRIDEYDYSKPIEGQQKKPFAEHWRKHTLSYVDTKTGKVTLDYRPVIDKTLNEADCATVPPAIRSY
T1 sequence (P21913 31-282): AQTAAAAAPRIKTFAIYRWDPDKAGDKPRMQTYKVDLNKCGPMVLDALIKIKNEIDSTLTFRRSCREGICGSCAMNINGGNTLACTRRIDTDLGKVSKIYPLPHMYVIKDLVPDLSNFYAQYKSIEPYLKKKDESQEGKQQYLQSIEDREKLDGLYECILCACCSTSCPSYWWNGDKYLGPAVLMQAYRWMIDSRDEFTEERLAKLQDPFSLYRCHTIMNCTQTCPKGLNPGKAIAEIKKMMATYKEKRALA
T1 sequence (Q641Z9 1-169): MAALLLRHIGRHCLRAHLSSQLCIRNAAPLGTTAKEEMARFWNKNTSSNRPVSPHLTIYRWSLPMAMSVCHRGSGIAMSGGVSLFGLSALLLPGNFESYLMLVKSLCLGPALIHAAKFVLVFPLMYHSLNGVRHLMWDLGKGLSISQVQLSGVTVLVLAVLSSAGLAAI
T1 sequence (Q6PCT8 57-159): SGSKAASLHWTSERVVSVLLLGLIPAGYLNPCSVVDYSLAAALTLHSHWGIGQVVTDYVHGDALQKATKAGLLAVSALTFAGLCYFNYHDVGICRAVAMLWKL

Question: Which “MMP measured by Rhodamine 123 at 1XCmax” value [1] does the source give for `O=C(c1ccc(F)c(F)c1Nc1ccc(I)cc1F)N1CC(O)([C@@H]2CCCCN2)C1` [Cobimetinib] here?
Answer: 0

Question: And the “MMP measured by Rhodamine 123 at 2.5XCmax” value [1]?
Answer: 0

Question: What about the “MMP measured by Rhodamine 123 at 5XCmax” value [1] of the same molecule?
Answer: 0

Question: What about the “MMP measured by Rhodamine 123 at 10XCmax” value [1] of the same molecule?
Answer: 0

Question: What about the “MMP measured by Rhodamine 123 at 20XCmax” value [1] of the same molecule?
Answer: 0

Question: What about the “MMP measured by Rhodamine 123 at 30XCmax” value [1] of the same molecule?
Answer: 0

Question: What about the “MMP measured by Rhodamine 123 at 50XCmax” value [1] of the same molecule?
Answer: 0

Question: And the “MMP measured by Rhodamine 123 at 100XCmax” value [1]?
Answer: 0

Question: What about the “Cytochrome c release 1XCmax” value [2] of the same molecule?
Answer: 0

Question: What about the “Cytochrome c release 2.5XCmax” value [2] of the same molecule?
Answer: 0

Question: What about the “Cytochrome c release 5XCmax” value [2] of the same molecule?
Answer: 0

Question: What about the “Cytochrome c release 10XCmax” value [2] of the same molecule?
Answer: 0

Question: What about the “Cytochrome c release 20XCmax” value [2] of the same molecule?
Answer: 0

Question: And the “Cytochrome c release 30XCmax” value [2]?
Answer: 0

Question: And the “Cytochrome c release 50XCmax” value [2]?
Answer: 0

Question: What about the “Cytochrome c release 100XCmax” value [2] of the same molecule?
Answer: 0

Question: What about the “State 3 respiration driven by glutamate/malate at 1XCmax” value [3] of the same molecule?
Answer: 0

Question: And the “State 3 respiration driven by succinate at 1XCmax” value [3]?
Answer: 0

Question: What about the “State 4 respiration driven by glutamate/malate at 1XCmax” value [3] of the same molecule?
Answer: 0

Question: And the “State 4 respiration driven by succinate at 1XCmax” value [3]?
Answer: 0

Question: What about the “State 3 respiration driven by glutamate/malate at 2.5XCmax” value [3] of the same molecule?
Answer: 0

Question: What about the “State 3 respiration driven by succinate at 2.5XCmax” value [3] of the same molecule?
Answer: 0

Question: And the “State 4 respiration driven by glutamate/malate at 2.5XCmax” value [3]?
Answer: 0

Question: And the “State 4 respiration driven by succinate at 2.5XCmax” value [3]?
Answer: 0

Question: What about the “State 3 respiration driven by glutamate/malate at 5XCmax” value [3] of the same molecule?
Answer: 0

Question: And the “State 3 respiration driven by succinate at 5XCmax” value [3]?
Answer: 0

Question: And the “State 4 respiration driven by glutamate/malate at 5XCmax” value [3]?
Answer: 0

Question: What about the “State 4 respiration driven by succinate at 5XCmax” value [3] of the same molecule?
Answer: 0

Question: What about the “State 3 respiration driven by glutamate/malate at 10XCmax” value [3] of the same molecule?
Answer: 0

Question: And the “State 3 respiration driven by succinate at 10XCmax” value [3]?
Answer: 0

Question: And the “State 4 respiration driven by glutamate/malate at 10XCmax” value [3]?
Answer: 0

Question: What about the “State 4 respiration driven by succinate at 10XCmax” value [3] of the same molecule?
Answer: 0

Question: And the “State 3 respiration driven by glutamate/malate at 20XCmax” value [3]?
Answer: 0

Question: And the “State 3 respiration driven by succinate at 20XCmax” value [3]?
Answer: 0

Question: And the “State 4 respiration driven by glutamate/malate at 20XCmax” value [3]?
Answer: 0

Question: And the “State 4 respiration driven by succinate at 20XCmax” value [3]?
Answer: 0

Question: And the “State 3 respiration driven by glutamate/malate at 30XCmax” value [3]?
Answer: 0

Question: What about the “State 3 respiration driven by succinate at 30XCmax” value [3] of the same molecule?
Answer: 0

Question: What about the “State 4 respiration driven by glutamate/malate at 30XCmax” value [3] of the same molecule?
Answer: 0

Question: And the “State 4 respiration driven by succinate at 30XCmax” value [3]?
Answer: 0

Question: And the “State 3 respiration driven by glutamate/malate at 50XCmax” value [3]?
Answer: 0

Question: What about the “State 3 respiration driven by succinate at 50XCmax” value [3] of the same molecule?
Answer: 0

Question: And the “State 4 respiration driven by glutamate/malate at 50XCmax” value [3]?
Answer: 0

Question: And the “State 4 respiration driven by succinate at 50XCmax” value [3]?
Answer: 0

Question: And the “State 3 respiration driven by glutamate/malate at 100XCmax” value [3]?
Answer: 0

Question: What about the “State 3 respiration driven by succinate at 100XCmax” value [3] of the same molecule?
Answer: 0

Question: What about the “State 4 respiration driven by glutamate/malate at 100XCmax” value [3] of the same molecule?
Answer: 0

Question: And the “State 4 respiration driven by succinate at 100XCmax” value [3]?
Answer: 0

Question: And the Cmax [4]?
Answer: 0.51 µM

Question: And the “RCC III at 100XCmax” value (RCC III)?
Answer: 0

Question: What about the “RCC II at 1.0XCmax” value (RCC II) of the same molecule?
Answer: 0

Question: What about the “RCC II at 2.5XCmax” value (RCC II) of the same molecule?
Answer: 0

Question: What about the “RCC II at 5XCmax” value (RCC II) of the same molecule?
Answer: 0

Question: What about the “RCC II at 10XCmax” value (RCC II) of the same molecule?
Answer: 0

Question: And the “RCC II at 20XCmax” value (RCC II)?
Answer: 0

Question: What about the “RCC II at 30XCmax” value (RCC II) of the same molecule?
Answer: 0

Question: What about the “RCC II at 50XCmax” value (RCC II) of the same molecule?
Answer: 0

Question: And the “RCC II at 100XCmax” value (RCC II)?
Answer: 0

Question: And the “RCC I at 10XCmax” value (RCC I)?
Answer: 0

Question: And the “RCC IV at 50XCmax” value (RCC IV)?
Answer: 0

Question: And the “ROS measured by CM-H2DCFDA at 1XCmax” value [5]?
Answer: 0

Question: What about the “ROS measured by CM-H2DCFDA at 2.5XCmax” value [5] of the same molecule?
Answer: 0

Question: What about the “ROS measured by CM-H2DCFDA at 5XCmax” value [5] of the same molecule?
Answer: 0

Question: What about the “ROS measured by CM-H2DCFDA at 10XCmax” value [5] of the same molecule?
Answer: 0

Question: And the “ROS measured by CM-H2DCFDA at 20XCmax” value [5]?
Answer: 0

Question: And the “ROS measured by CM-H2DCFDA at 30XCmax” value [5]?
Answer: 0

Question: And the “ROS measured by CM-H2DCFDA at 50XCmax” value [5]?
Answer: 0

Question: And the “ROS measured by CM-H2DCFDA at 100XCmax” value [5]?
Answer: 0

Question: Which results are given for `CC(=O)c1c(C)c2cnc(Nc3ccc(N4CCNCC4)cn3)nc2n(C2CCCC2)c1=O.Cl` [palbociclib hydrochloride]?
Answer: MMP measured by Rhodamine 123 at 1XCmax [1]: 0; MMP measured by Rhodamine 123 at 2.5XCmax [1]: 0; MMP measured by Rhodamine 123 at 5XCmax [1]: 0; MMP measured by Rhodamine 123 at 10XCmax [1]: 0; MMP measured by Rhodamine 123 at 20XCmax [1]: 0; MMP measured by Rhodamine 123 at 30XCmax [1]: 0; MMP measured by Rhodamine 123 at 50XCmax [1]: 0; MMP measured by Rhodamine 123 at 100XCmax [1]: 0; Cytochrome c release 1XCmax [2]: 0; Cytochrome c release 2.5XCmax [2]: 0; Cytochrome c release 5XCmax [2]: 0; Cytochrome c release 10XCmax [2]: 0; Cytochrome c release 20XCmax [2]: 0; Cytochrome c release 30XCmax [2]: 0; Cytochrome c release 50XCmax [2]: 0; Cytochrome c release 100XCmax [2]: 0; State 3 respiration driven by glutamate/malate at 1XCmax [3]: 0; State 3 respiration driven by succinate at 1XCmax [3]: 0; State 4 respiration driven by glutamate/malate at 1XCmax [3]: 0; State 4 respiration driven by succinate at 1XCmax [3]: 0; State 3 respiration driven by glutamate/malate at 2.5XCmax [3]: 0; State 3 respiration driven by succinate at 2.5XCmax [3]: 0; State 4 respiration driven by glutamate/malate at 2.5XCmax [3]: 0; State 4 respiration driven by succinate at 2.5XCmax [3]: 0; State 3 respiration driven by glutamate/malate at 5XCmax [3]: 0; State 3 respiration driven by succinate at 5XCmax [3]: 0; State 4 respiration driven by glutamate/malate at 5XCmax [3]: 0; State 4 respiration driven by succinate at 5XCmax [3]: 0; State 3 respiration driven by glutamate/malate at 10XCmax [3]: 0; State 3 respiration driven by succinate at 10XCmax [3]: 0; State 4 respiration driven by glutamate/malate at 10XCmax [3]: 0; State 4 respiration driven by succinate at 10XCmax [3]: 0; State 3 respiration driven by glutamate/malate at 20XCmax [3]: 0; State 3 respiration driven by succinate at 20XCmax [3]: 0; State 4 respiration driven by glutamate/malate at 20XCmax [3]: 0; State 4 respiration driven by succinate at 20XCmax [3]: 0; State 3 respiration driven by glutamate/malate at 30XCmax [3]: 0; State 3 respiration driven by succinate at 30XCmax [3]: 0; State 4 respiration driven by glutamate/malate at 30XCmax [3]: 0; State 4 respiration driven by succinate at 30XCmax [3]: 0; State 3 respiration driven by glutamate/malate at 50XCmax [3]: 0; State 3 respiration driven by succinate at 50XCmax [3]: 0; State 4 respiration driven by glutamate/malate at 50XCmax [3]: 0; State 4 respiration driven by succinate at 50XCmax [3]: 0; State 3 respiration driven by glutamate/malate at 100XCmax [3]: 0; State 3 respiration driven by succinate at 100XCmax [3]: 0; State 4 respiration driven by glutamate/malate at 100XCmax [3]: 0; State 4 respiration driven by succinate at 100XCmax [3]: 0; Cmax (ng or µg/ml) [4]: 0.116 µg/mL; Cmax [4]: 0.24 µM; RCC III at 100XCmax (RCC III): 0; RCC II at 1.0XCmax (RCC II): 0; RCC II at 2.5XCmax (RCC II): 0; RCC II at 5XCmax (RCC II): 0; RCC II at 10XCmax (RCC II): 0; RCC II at 20XCmax (RCC II): 0; RCC II at 30XCmax (RCC II): 0; RCC II at 50XCmax (RCC II): 0; RCC II at 100XCmax (RCC II): 0; RCC I at 10XCmax (RCC I): 0; RCC IV at 50XCmax (RCC IV): 0; ROS measured by CM-H2DCFDA at 1XCmax [5]: 0; ROS measured by CM-H2DCFDA at 2.5XCmax [5]: 0; ROS measured by CM-H2DCFDA at 5XCmax [5]: 0; ROS measured by CM-H2DCFDA at 10XCmax [5]: 0; ROS measured by CM-H2DCFDA at 20XCmax [5]: 0; ROS measured by CM-H2DCFDA at 30XCmax [5]: 0; ROS measured by CM-H2DCFDA at 50XCmax [5]: 0; ROS measured by CM-H2DCFDA at 100XCmax [5]: 0
